# From ChEMBL document CHEMBL2010722, “Structure-activity relationship study of beta-carboline derivatives as haspin kinase inhibitors” (Bioorg Med Chem Lett, 2012)
# Key:
# [1] = molecular target: Calcium/calmodulin-dependent protein kinase type II subunit gamma (Homo sapiens) (UniProt Q13555); test: Inhibition of CaMK2g at 10 uM
# [2] = molecular target: Serine/threonine-protein kinase MARK1 (Homo sapiens) (UniProt Q9P0L2); test: Inhibition of MARK1 at 10 uM
# [3] = molecular target: MAP kinase-activated protein kinase 2 (Homo sapiens) (UniProt P49137); test: Inhibition of MAPKAPK2 at 10 uM
# [4] = molecular target: NT-3 growth factor receptor (Homo sapiens) (UniProt Q16288); test: Inhibition of TRKC at 10 uM
# [5] = molecular target: Dual specificity tyrosine-phosphorylation-regulated kinase 1B (Homo sapiens) (UniProt Q9Y463); test: Inhibition of DYRK1B at 10 uM
# [6] = molecular target: Sphingosine kinase 1 (Homo sapiens) (UniProt Q9NYA1); test: Inhibition of SPHK1 at 10 uM
# [7] = molecular target: [Pyruvate dehydrogenase (acetyl-transferring)] kinase isozyme 2, mitochondrial (Homo sapiens) (UniProt Q15119); test: Inhibition of PDHK2 at 10 uM
# [8] = molecular target: Calcium/calmodulin-dependent protein kinase type II subunit alpha (Homo sapiens) (UniProt Q9UQM7); test: Inhibition of CaMK2a at 10 uM
# [9] = molecular target: Mitogen-activated protein kinase 1 (Homo sapiens) (UniProt P28482); test: Inhibition of Erk2 at 10 uM
# [10] = system: Platelet-derived growth factor receptor alpha (Homo sapiens), P16234 [V561D]; test: Inhibition of PDGFRa V561D mutant at 10 uM
# [11] = molecular target: Protein kinase C zeta type (Homo sapiens) (UniProt Q05513); test: Inhibition of PKCzeta at 10 uM
# [12] = molecular target: Serine/threonine-protein kinase PAK 3 (Homo sapiens) (UniProt O75914); test: Inhibition of PAK3 at 10 uM
# [13] = molecular target: Protein kinase C iota type (Homo sapiens) (UniProt P41743); test: Inhibition of PKCi at 10 uM
# [14] = molecular target: Calcium/calmodulin-dependent protein kinase type 1 (Homo sapiens) (UniProt Q14012); test: Inhibition of CaMK1alpha at 10 uM
# [15] = molecular target: Tyrosine-protein kinase Fer (Homo sapiens) (UniProt P16591); test: Inhibition of FER at 10 uM
# [16] = molecular target: Receptor-type tyrosine-protein kinase FLT3 (Homo sapiens) (UniProt P36888); test: Inhibition of FLT3 at 10 uM
# [17] = molecular target: Cyclin-dependent kinase 5/CDK5 activator 1 (Homo sapiens) (UniProt Q00535+Q15078); test: Inhibition of CDK5-p25 at 10 uM; assay type: protein-complex assay
# [18] = molecular target: Macrophage colony-stimulating factor 1 receptor (Homo sapiens) (UniProt P07333); test: Inhibition of FMS at 10 uM
# [19] = molecular target: Tyrosine-protein kinase BTK (Homo sapiens) (UniProt Q06187); test: Inhibition of BTK at 10 uM
# [20] = molecular target: Serine/threonine-protein kinase Sgk3 (Homo sapiens) (UniProt Q96BR1); test: Inhibition of SGK3 at 10 uM
# [21] = molecular target: Wee1-like protein kinase (Homo sapiens) (UniProt P30291); test: Inhibition of WEE1 at 10 uM
# [22] = molecular target: Protein kinase C alpha type (Homo sapiens) (UniProt P17252); test: Inhibition of PKCalpha at 10 uM
# [23] = molecular target: Ephrin type-B receptor 1 (Homo sapiens) (UniProt P54762); test: Inhibition of EPHB1 at 10 uM
# [24] = molecular target: Tyrosine-protein kinase Blk (Homo sapiens) (UniProt P51451); test: Inhibition of BLK at 10 uM
# [25] = molecular target: Megakaryocyte-associated tyrosine-protein kinase (Homo sapiens) (UniProt P42679); test: Inhibition of CTK at 10 uM
# [26] = molecular target: Aurora kinase C (Homo sapiens) (UniProt Q9UQB9); test: Inhibition of AurC at 10 uM
# [27] = molecular target: Proto-oncogene tyrosine-protein kinase Src (Homo sapiens) (UniProt P12931); test: Inhibition of SRC at 10 uM
# [28] = molecular target: Platelet-derived growth factor receptor alpha (Homo sapiens) (UniProt P16234); test: Inhibition of PDGFRa at 10 uM
# [29] = molecular target: cAMP-dependent protein kinase catalytic subunit beta (Homo sapiens) (UniProt P22694); test: Inhibition of PKACb (PRKACB) at 10 uM
# [30] = molecular target: Eukaryotic translation initiation factor 2-alpha kinase 3 (Homo sapiens) (UniProt Q9NZJ5); test: Inhibition of PEK at 10 uM
# [31] = molecular target: Dual specificity mitogen-activated protein kinase kinase 1 (Homo sapiens) (UniProt Q02750); test: Inhibition of MAP2K1 at 10 uM
# [32] = Inhibition of SRM at 10 uM
# [33] = molecular target: Vascular endothelial growth factor receptor 3 (Homo sapiens) (UniProt P35916); test: Inhibition of FLT4 at 10 uM
# [34] = molecular target: Protein kinase C epsilon type (Homo sapiens) (UniProt Q02156); test: Inhibition of PKCepsilon at 10 uM
# [35] = molecular target: Serine/threonine-protein kinase D2 (Homo sapiens) (UniProt Q9BZL6); test: Inhibition of PKD2 at 10 uM
# [36] = molecular target: Serine/threonine-protein kinase Sgk1 (Homo sapiens) (UniProt O00141); test: Inhibition of SGK at 10 uM
# [37] = molecular target: Fibroblast growth factor receptor 1 (Homo sapiens) (UniProt P11362); test: Inhibition of FGFR1 at 10 uM
# [38] = molecular target: Focal adhesion kinase 1 (Homo sapiens) (UniProt Q05397); test: Inhibition of FAK at 10 uM
# [39] = molecular target: Mitogen-activated protein kinase kinase kinase 1 (Homo sapiens) (UniProt Q13233); test: Inhibition of MAP3K1 at 10 uM
# [40] = molecular target: Protein kinase C beta type (Homo sapiens) (UniProt P05771); test: Inhibition of PKCbeta2 at 10 uM
# [41] = molecular target: Leukocyte tyrosine kinase receptor (Homo sapiens) (UniProt P29376); test: Inhibition of LTK at 10 uM
# [42] = molecular target: Dual specificity mitogen-activated protein kinase kinase 3 (Homo sapiens) (UniProt P46734); test: Inhibition of MAP2K3 at 10 uM
# [43] = molecular target: Casein kinase I isoform gamma-2 (Homo sapiens) (UniProt P78368); test: Inhibition of CK1g2 at 10 uM
# [44] = molecular target: Tyrosine-protein kinase Fes/Fps (Homo sapiens) (UniProt P07332); test: Inhibition of FES at 10 uM
# [45] = molecular target: Tyrosine-protein kinase JAK3 (Homo sapiens) (UniProt P52333); test: Inhibition of JAK3 at 10 uM
# [46] = molecular target: 3-phosphoinositide-dependent protein kinase 1 (Homo sapiens) (UniProt O15530); test: Inhibition of PDK1 at 10 uM
# [47] = molecular target: Protein kinase C theta type (Homo sapiens) (UniProt Q04759); test: Inhibition of PKCq at 10 uM
# Chain of Protein kinase C theta type (Homo sapiens) (Q04759 whole entry, looked up): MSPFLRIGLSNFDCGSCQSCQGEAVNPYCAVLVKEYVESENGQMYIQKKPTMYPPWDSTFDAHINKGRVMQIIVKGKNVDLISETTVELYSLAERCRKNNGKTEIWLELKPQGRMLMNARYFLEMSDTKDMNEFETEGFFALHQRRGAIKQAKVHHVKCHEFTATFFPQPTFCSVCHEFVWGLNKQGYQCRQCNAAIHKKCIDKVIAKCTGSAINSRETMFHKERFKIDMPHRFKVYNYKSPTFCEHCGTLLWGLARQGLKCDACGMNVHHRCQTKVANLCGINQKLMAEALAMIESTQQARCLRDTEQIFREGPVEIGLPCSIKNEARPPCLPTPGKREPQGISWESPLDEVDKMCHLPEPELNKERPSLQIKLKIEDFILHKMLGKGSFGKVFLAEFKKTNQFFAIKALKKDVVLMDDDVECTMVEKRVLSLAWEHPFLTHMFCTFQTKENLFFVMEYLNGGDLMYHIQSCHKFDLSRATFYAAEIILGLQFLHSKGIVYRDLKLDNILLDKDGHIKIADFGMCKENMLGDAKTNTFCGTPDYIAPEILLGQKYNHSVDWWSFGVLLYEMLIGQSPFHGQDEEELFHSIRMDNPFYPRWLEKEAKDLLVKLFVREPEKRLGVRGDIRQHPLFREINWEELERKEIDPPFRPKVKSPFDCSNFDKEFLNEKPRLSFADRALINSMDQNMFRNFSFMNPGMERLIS
# Chain of NT-3 growth factor receptor (Homo sapiens) (Q16288 32-839 limits assumed): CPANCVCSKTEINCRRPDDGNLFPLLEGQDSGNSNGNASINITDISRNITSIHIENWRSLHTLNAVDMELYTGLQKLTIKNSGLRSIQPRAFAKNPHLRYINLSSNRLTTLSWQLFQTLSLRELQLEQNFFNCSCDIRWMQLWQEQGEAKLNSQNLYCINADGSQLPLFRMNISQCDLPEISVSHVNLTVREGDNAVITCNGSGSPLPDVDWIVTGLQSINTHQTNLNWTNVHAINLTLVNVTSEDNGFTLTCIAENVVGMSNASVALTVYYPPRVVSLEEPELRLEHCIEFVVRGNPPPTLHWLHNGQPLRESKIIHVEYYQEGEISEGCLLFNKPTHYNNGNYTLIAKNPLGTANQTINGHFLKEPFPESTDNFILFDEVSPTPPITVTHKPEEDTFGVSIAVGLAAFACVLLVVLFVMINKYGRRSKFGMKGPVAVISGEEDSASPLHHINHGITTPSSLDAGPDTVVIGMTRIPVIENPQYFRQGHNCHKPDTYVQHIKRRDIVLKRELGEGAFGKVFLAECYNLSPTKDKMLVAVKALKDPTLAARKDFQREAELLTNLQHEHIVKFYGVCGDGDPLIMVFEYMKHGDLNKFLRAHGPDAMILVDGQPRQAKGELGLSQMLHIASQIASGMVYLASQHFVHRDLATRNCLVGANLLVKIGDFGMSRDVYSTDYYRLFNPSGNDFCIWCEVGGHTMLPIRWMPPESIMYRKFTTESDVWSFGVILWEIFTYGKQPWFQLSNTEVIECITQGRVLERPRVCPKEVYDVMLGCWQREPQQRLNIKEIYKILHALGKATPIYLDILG
# Chain of 3-phosphoinositide-dependent protein kinase 1 (Homo sapiens) (O15530 whole entry, looked up): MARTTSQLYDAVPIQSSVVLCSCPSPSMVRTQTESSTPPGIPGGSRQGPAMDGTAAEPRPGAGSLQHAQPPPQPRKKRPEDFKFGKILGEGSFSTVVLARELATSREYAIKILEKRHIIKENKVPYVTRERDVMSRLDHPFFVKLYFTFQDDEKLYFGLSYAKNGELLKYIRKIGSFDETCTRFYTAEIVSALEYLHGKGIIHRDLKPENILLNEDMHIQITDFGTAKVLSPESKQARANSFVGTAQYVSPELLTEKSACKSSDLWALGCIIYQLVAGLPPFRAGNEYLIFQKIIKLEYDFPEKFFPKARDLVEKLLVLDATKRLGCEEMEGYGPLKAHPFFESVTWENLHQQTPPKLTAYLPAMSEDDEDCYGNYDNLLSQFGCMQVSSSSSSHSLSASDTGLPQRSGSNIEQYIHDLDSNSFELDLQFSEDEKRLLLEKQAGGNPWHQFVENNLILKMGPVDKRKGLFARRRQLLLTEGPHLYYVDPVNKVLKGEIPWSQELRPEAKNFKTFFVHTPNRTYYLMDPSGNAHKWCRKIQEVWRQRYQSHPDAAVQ
# Chain of Ephrin type-B receptor 1 (Homo sapiens) (P54762 whole entry): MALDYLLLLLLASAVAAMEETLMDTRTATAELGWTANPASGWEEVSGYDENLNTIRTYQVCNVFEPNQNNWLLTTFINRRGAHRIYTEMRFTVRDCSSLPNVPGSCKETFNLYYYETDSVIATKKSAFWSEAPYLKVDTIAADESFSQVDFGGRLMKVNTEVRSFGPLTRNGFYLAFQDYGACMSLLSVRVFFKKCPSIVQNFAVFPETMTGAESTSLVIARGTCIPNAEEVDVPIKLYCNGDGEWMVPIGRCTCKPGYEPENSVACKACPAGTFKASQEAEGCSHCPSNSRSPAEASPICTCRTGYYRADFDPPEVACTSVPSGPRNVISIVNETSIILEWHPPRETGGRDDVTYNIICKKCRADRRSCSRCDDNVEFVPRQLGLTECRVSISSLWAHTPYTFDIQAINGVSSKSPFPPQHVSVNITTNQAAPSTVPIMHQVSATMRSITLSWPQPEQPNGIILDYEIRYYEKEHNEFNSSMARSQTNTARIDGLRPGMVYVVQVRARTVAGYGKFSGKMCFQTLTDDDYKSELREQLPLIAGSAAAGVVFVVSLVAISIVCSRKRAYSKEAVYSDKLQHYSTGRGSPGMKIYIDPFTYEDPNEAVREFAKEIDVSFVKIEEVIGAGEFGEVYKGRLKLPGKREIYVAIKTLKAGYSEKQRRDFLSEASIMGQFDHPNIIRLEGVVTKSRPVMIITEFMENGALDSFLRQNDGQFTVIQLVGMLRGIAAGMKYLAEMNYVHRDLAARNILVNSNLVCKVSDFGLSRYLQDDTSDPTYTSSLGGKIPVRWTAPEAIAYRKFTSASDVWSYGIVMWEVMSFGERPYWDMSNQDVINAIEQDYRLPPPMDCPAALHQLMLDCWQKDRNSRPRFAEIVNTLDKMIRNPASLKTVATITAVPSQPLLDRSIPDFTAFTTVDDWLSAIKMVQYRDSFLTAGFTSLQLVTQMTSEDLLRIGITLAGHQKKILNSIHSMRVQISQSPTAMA
# Chain of Platelet-derived growth factor receptor alpha (Homo sapiens), P16234 [V561D] (P16234 whole entry V561D): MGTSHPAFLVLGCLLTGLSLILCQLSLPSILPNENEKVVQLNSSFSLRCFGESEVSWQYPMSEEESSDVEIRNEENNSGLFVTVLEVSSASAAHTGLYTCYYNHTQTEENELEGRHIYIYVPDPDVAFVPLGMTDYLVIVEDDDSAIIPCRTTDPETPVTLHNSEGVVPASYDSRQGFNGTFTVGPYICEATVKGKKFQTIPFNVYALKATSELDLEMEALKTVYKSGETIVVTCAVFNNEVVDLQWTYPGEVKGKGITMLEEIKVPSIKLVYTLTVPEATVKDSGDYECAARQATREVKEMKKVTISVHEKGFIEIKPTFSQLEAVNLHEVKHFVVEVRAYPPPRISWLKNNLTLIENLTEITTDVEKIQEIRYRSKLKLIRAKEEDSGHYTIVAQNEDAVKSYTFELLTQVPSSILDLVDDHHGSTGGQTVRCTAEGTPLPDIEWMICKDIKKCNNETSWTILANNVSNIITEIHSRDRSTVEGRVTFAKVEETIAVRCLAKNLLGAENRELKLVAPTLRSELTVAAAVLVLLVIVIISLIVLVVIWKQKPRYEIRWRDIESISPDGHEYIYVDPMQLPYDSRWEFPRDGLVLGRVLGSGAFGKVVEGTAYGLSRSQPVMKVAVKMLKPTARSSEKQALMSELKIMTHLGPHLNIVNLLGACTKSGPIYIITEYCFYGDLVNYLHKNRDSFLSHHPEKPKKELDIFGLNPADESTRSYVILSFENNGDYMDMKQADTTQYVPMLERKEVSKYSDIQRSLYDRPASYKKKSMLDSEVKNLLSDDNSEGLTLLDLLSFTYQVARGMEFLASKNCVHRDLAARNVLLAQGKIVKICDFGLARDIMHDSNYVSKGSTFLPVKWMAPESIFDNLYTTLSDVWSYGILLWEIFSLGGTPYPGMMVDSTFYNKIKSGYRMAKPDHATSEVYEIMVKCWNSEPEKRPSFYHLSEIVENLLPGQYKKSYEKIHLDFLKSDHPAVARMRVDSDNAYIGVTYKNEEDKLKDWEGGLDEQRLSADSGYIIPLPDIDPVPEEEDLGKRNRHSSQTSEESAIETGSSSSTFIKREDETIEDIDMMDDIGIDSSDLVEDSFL
# Chain of Dual specificity tyrosine-phosphorylation-regulated kinase 1B (Homo sapiens) (Q9Y463 whole entry, looked up): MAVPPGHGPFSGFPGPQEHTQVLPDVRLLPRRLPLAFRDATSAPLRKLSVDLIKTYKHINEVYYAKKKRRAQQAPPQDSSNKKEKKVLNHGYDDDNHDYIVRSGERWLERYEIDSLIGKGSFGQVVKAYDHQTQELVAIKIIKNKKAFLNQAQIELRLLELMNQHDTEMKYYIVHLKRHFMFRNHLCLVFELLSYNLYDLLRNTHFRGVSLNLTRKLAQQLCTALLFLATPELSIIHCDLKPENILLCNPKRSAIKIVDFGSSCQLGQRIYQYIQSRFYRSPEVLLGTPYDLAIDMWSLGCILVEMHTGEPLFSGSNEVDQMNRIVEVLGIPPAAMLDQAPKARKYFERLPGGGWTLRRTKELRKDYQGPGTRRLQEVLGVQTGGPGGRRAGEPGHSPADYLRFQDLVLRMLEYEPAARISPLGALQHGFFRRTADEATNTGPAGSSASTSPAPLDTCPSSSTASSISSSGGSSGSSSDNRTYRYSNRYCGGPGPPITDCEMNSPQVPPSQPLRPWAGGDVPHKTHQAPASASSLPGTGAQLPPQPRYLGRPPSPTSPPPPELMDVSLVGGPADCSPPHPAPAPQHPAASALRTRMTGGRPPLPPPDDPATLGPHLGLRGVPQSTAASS
# Chain of Platelet-derived growth factor receptor alpha (Homo sapiens) (P16234 whole entry): as the sequence (P16234 whole entry V561D) above, with D561V counted along it
smiles,measurement,setting,value
COc1ccc2c3ccnc(C(F)(F)F)c3n(CCCCN)c2c1,inhibition,[1],78%
same,inhibition,[2],48%
same,inhibition,[3],7%
same,inhibition,[4],25%
same,inhibition,[5],98%
same,inhibition,[6],0%
same,inhibition,[7],0%
same,inhibition,[8],53%
same,inhibition,[9],7%
same,inhibition,[10],31%
same,inhibition,[11],35%
same,inhibition,[12],27%
same,inhibition,[13],9%
same,inhibition,[14],14%
same,inhibition,[15],8%
same,inhibition,[16],74%
same,inhibition,[17],39%
same,inhibition,[18],6%
same,inhibition,[19],0%
same,inhibition,[20],13%
same,inhibition,[21],0%
same,inhibition,[22],26%
same,inhibition,[23],0%
same,inhibition,[24],4%
same,inhibition,[25],25%
same,inhibition,[26],1%
same,inhibition,[27],17%
same,inhibition,[28],27%
same,inhibition,[29],41%
same,inhibition,[30],0%
same,inhibition,[31],16%
same,inhibition,[32],0%
same,inhibition,[33],9%
same,inhibition,[34],72%
same,inhibition,[35],84%
same,inhibition,[36],34%
same,inhibition,[37],5%
same,inhibition,[38],0%
same,inhibition,[39],0%
same,inhibition,[40],28%
same,inhibition,[41],5%
same,inhibition,[42],38%
same,inhibition,[43],60%
same,inhibition,[44],4%
same,inhibition,[45],4%
same,inhibition,[46],0%
same,inhibition,[47],42%
